This test relates to HBV. The test is described as follows: In vitro anti-HBV activity in HepG2.2.15 cell line (intracellular HBV DNA by qPCR at 1 μM). It is filed as cell-based. As to conditions: Hepatitis B virus, 144 h; HepG2.2.15 cells, 1 μM compound, 6 days, intracellular HBV DNA as percentage compared to vehicle control (0.5% DMSO). The method, then: The stable transfected HBV cell line, called HepG2.2.15 cells was a valuable model with high reproducibility and commonly used for drug screening. To identify the anti-HBV activity, HepG2.2.15 cells were seeded at 5×10^5 cells/well with high glucose Dulbecco's modified Eagle medium (DMEM) containing 10% heat inactivated fetal bovine serum (FBS), 300 mg/L G418, non-essential amino acids (NEAA) 100 units/ml Antibiotic-Antimycotic, and allowed to stand for an overnight in an incubator set at 37° C. and 5% C02. HepG2.2.15 cells in each well were treated with the medium containing a compound (1 μM with 0.5% dimethyl sulfoxide (DMSO final concentration) for three days in the incubator. After that the medium was removed and fresh medium containing the compound was added to the cells for another 3 days. After 6 days of treatment, intracellular HBV DNA was extracted and determined by using quantitative real-time PCR (qPCR) technique with specific primers. Intrahepatic HBV DNA viral load was reported as percentage compared to vehicle control (0.5% DMSO) as shown in Table A.
“B” means % ranging between 80 and 90; “C” means % ranging between 70 and 80; “D” means % ranging between 60 and 70; “E” means % ranging between 45 and 60, “F” means %<45.
In general terms: Quantitative PCR measures a nucleic acid by following its amplification.

Regarding `O=C(Nc1cc(F)c(F)c(F)c1)[C@H]1CCN(C(=O)c2sccc2Cl)C1` [Example 3, (S)-1-(3-chlorothiophene-2-carbonyl)-N-(3,4,5-trifluorophenyl)pyrrolidine-3-carboxamide], the activity at 1 µM fell in the range of 70 to 80%. The same measure for `Cc1ncccc1-c1ccc(C(=O)N2CC[C@H](C(=O)Nc3cc(F)c(F)c(F)c3)C2)[nH]1` [Example 80, (S)-1-(5-(2-methylpyridin-3-yl)-1H-pyrrole-2-carbonyl)-N-(3,4,5-trifluorophenyl) pyrrolidine-3-carboxamide]: less than 45%; for `Cc1ccc(C(=O)N2CC[C@H](C(=O)Nc3cc(F)c(F)c(Br)c3)[C@@H]2C)[nH]1` [Example 58, (2S,3S)—N-(3-bromo-4,5-difluorophenyl)-2-methyl-1-(5-methyl-1H-pyrrole-2-carbonyl)pyrroline-3-carboxamide]: 70 to 80%. For `Cc1nn(CC(=O)N2CC(O)C2)c(C)c1-c1ccc(C(=O)N2CC[C@H](C(=O)Nc3cc(F)c(F)c(F)c3)C2)[nH]1` [Example 112, (S)-1-(5-(1-(2-(3-hydroxyazetidin-1-yl)-2-oxoethyl)-3,5-dimethyl-1H-pyrazol-4-yl)-1H-pyrrole-2-carbonyl)-N-(3,4,5-trifluorophenyl)pyrrolidine-3-carboxamide], the activity at 1 µM lay within 60 to 70%. The value for `CC(C)c1ccc(C(=O)N2CC[C@H](C(=O)Nc3cc(F)c(F)c(F)c3)C2)[nH]1` [Example 61, (S)-1-(5-isopropyl-1H-pyrrole-2-carbonyl)-N-(3,4,5-trifluorophenyl)pyrrolidine-3-carboxamide] was 60 to 70%; that for `Cc1c[nH]nc1C(=O)N1CC[C@H](C(=O)Nc2cc(F)c(F)c(F)c2)C1` [Example 29, (S)-1-(4-methyl-1H-pyrazole-3-carbonyl)-N-(3,4,5-trifluorophenyl)pyrrolidine-3-carboxamide] was greater than 90%. `Cc1cc(NC(=O)[C@@H]2CN(C(=O)c3[nH]c4ccccc4c3Cl)C[C@H]2C)ccc1F` [Example 167, (3S,4S)-1-(3-chloro-1H-indole-2-carbonyl)-N-(4-fluoro-3-methylphenyl)-4-methylpyrrolidine-3-carboxamide] returned an activity at 1 µM of 45 to 60%. The value for `O=C(Nc1cc(F)c(F)c(F)c1)[C@H]1CCN(C(=O)c2nc3cccnc3[nH]2)C1` [Example 67, (S)-1-(3H-imidazo[4,5-b]pyridine-2-carbonyl)-N-(3,4,5-trifluorophenyl)pyrrolidine-3-carboxamide] was 45 to 60%; that for `Cc1ccc(C(=O)N2CC[C@H](C(=O)Nc3ccc(F)c(Cl)c3)C2)[nH]1` [Example 33, (S)—N-(3-chloro-4-fluorophenyl)-1-(5-methyl-1H-pyrrole-2-carbonyl)pyrrolidine-3-carboxamide] was 80 to 90%; that for `Cc1c(-c2ccc(C(=O)N3CC[C@H](C(=O)Nc4cc(F)c(F)c(F)c4)C3)[nH]2)c2ncccc2n1C` [Example 152, (S)-1-(5-(1,2-dimethyl-1H-pyrrolo[3,2-b]pyridin-3-yl)-1H-pyrrole-2-carbonyl)-N-(3,4,5-trifluorophenyl)pyrrolidine-3-carboxamide] was greater than 90%. The compound `O=C(Nc1cc(F)c(F)c(F)c1)[C@H]1CCN(C(=O)c2ccc(-c3ccccn3)[nH]2)C1` [Example 90, (S)-1-(5-(pyridin-2-yl)-1H-pyrrole-2-carbonyl)-N-(3,4,5-trifluorophenyl)pyrrolidine-3-carboxamide] came in with an activity at 1 µM of 70 to 80%. The same measure for `O=C(Nc1cc(F)c(F)c(F)c1)[C@H]1CCN(C(=O)c2cc3cc(F)ccc3[nH]2)C1` [Example 57, (S)-1-(5-fluoro-1H-indole-2-carbonyl)-N-(3,4,5-trifluorophenyl)pyrrolidine-3-carboxamide]: greater than 90%.

Compound `Cc1ncc(-c2ccc(C(=O)N3CC[C@H](C(=O)Nc4cc(F)c(F)c(F)c4)C3)[nH]2)cn1` [Example 86, (S)-1-(5-(2-methylpyrimidin-5-yl)-1H-pyrrole-2-carbonyl)-N-(3,4,5-trifluorophenyl)pyrrolidine-3-carboxamide] came in with an activity at 1 µM of less than 45%.
